BindingDB's records for doi:10.1021/bi0200514 (Merck Research Laboratories, 2002)
“And” between values parts separate entries of the source, which are not always exact repeats. Identical values can stand only once. Positions of bridges follow the written chain, without caps; N, C: chain ends. Non-standard residues stand in square brackets, D forms with d. Residues, ends and D or L forms follow the SMILES beside them. *: point of attachment. Pentanoyl(5-guanidino) = NC(N)=NCCCCC(=O)*; Abu = CC[C@H](N)C(=O)O; Aoc = NCCCCCCCC(=O)O; Ava = NCCCCC(=O)O

How the values were obtained:
[1] = target: Melanin-concentrating hormone receptor 1 (Homo sapiens, UniProt Q99705)
Sequence of Melanin-concentrating hormone receptor 1 (Q99705 as listed by the source): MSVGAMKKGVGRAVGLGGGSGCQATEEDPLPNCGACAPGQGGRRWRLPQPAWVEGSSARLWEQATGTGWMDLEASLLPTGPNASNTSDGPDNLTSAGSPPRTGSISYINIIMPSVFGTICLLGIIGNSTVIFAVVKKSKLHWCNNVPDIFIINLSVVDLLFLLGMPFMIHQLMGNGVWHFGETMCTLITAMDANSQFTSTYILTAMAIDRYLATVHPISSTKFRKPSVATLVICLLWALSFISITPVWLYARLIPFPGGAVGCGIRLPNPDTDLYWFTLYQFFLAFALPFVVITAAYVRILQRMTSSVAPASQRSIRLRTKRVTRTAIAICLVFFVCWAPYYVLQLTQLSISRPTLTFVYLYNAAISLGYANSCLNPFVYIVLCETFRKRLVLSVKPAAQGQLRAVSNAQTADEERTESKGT

[2] = target: Melanin-concentrating hormone receptor 2 (Homo sapiens, UniProt Q969V1)
Sequence of Melanin-concentrating hormone receptor 2 (Q969V1 whole entry): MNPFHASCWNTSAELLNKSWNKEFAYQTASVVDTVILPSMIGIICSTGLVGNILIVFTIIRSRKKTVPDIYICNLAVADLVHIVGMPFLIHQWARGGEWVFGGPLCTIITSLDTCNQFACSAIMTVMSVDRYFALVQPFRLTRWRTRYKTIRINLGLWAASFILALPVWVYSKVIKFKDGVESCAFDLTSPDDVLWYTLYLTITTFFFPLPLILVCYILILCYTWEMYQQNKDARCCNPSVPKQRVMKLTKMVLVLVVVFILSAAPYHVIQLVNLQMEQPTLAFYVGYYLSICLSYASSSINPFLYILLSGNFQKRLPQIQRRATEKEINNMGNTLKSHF

CSCC[C@@H]1NC(=O)[C@@H](NC(=O)[C@H](CCCNC(=N)N)NC(C)=O)CSSC[C@@H](C(N)=O)NC(=O)[C@@H]2CCCN2C(=O)[C@H](CCCNC(=N)N)NC(=O)[C@H](Cc2ccc(O)cc2)NC(=O)[C@H](C(C)C)NC(=O)[C@H](CCCNC(=N)N)NC(=O)CNC(=O)[C@H](CC(C)C)NC1=O [hAc-MCH(6-16)-NH2]
Ki [1]: 0.16 nM | Ki [2]: 2.7 nM

CSCC[C@@H]1NC(=O)[C@@H](NC(=O)[C@H](CCCNC(=N)N)NC(=O)[C@H](CC(C)C)NC(=O)[C@H](CCSC)NC(=O)[C@H](CC(=O)O)NC(=O)[C@H](Cc2ccccc2)NC(=O)[C@@H](N)CC(=O)O)CSSC[C@@H](C(=O)N[C@@H](Cc2c[nH]c3ccccc23)C(=O)N[C@@H](CCC(N)=O)C(=O)N[C@H](C(=O)O)C(C)C)NC(=O)[C@@H]2CCCN2C(=O)[C@H](CCCNC(=N)N)NC(=O)[C@H](Cc2ccc(O)cc2)NC(=O)[C@H](C(C)C)NC(=O)[C@H](CCCNC(=N)N)NC(=O)CNC(=O)[C@H](CC(C)C)NC1=O [hMCH]
Ki [2]: 2.9 nM

CC(=O)N[C@@H](CCCN=C(N)N)C(=O)N[C@H]1CSSC[C@@H](C(N)=O)NC(=O)CCCCNC(=O)[C@H](Cc2ccc(O)cc2)NC(=O)[C@H](C(C)C)NC(=O)[C@H](CCCN=C(N)N)NC(=O)CNC(=O)[C@H](CC(C)C)NC(=O)[C@H](C)NC1=O [Ala8,Ava14,15] (Ac-RCALGRVY[Ava]C-NH2; disulfide 2-10)
Ki [2]: 38 nM

CSCC[C@@H]1NC(=O)[C@@H](NC(=O)CCCN=C(N)N)CSSC[C@@H](C(N)=O)NC(=O)CCCCNC(=O)[C@H](Cc2ccc(O)cc2)NC(=O)[C@H](C(C)C)NC(=O)[C@H](CCCN=C(N)N)NC(=O)CNC(=O)[C@H](CC(C)C)NC1=O [Gbu6,Ava14,15]
Ki [1]: 7.9 nM | Ki [2]: 45 nM

CCCC[C@@H]1NC(=O)[C@@H](NC(=O)CCCCN=C(N)N)CSSC[C@@H](C(N)=O)NC(=O)CCCCNC(=O)[C@H](Cc2ccc(O)cc2)NC(=O)[C@H](C(C)C)NC(=O)[C@H](CCCN=C(N)N)NC(=O)CNC(=O)[C@H](CC(C)C)NC1=O [Gva6,Nle8,Ava14,15]
Ki [1]: 4.7 nM | Ki [2]: 70 nM

CSCC[C@@H]1NC(=O)[C@@H](NC(=O)[C@H](CCN=C(N)N)NC(C)=O)CSSC[C@@H](C(N)=O)NC(=O)CCCCNC(=O)[C@H](Cc2ccc(O)cc2)NC(=O)[C@H](C(C)C)NC(=O)[C@H](CCCN=C(N)N)NC(=O)CNC(=O)[C@H](CC(C)C)NC1=O [Gpr6,Ava14,15]
Ki [1]: 43 nM | Ki [2]: 43 nM

CSCC[C@@H]1NC(=O)[C@@H](NC(=O)[C@H](CCCN=C(N)N)NC(C)=O)CSSC[C@@H](C(N)=O)NC(=O)CCCCNC(=O)[C@H](Cc2ccc(O)cc2)NC(=O)[C@H](C(C)C)NC(=O)[C@H](CCCN=C(N)N)NC(=O)CNC(=O)[C@H](CC(C)C)NC1=O [Ava14,15]
Ki [1]: 1.8 nM | Ki [2]: 50 nM

CC(=O)N[C@@H](CCCN=C(N)N)C(=O)N[C@H]1CSSC[C@@H](C(N)=O)NC(=O)[C@@H]2CCCN2C(=O)[C@H](CCCN=C(N)N)NC(=O)[C@H](Cc2ccc(O)cc2)NC(=O)[C@H](C(C)C)NC(=O)[C@H](CCCN=C(N)N)NC(=O)CCCCCCCNC1=O [Aoct8,9,10] (Ac-RC[Aoc]RVYRPC-NH2; disulfide 2-9)
Ki [1]: 4800 nM | Ki [2]: 63 nM

CC[C@@H]1NC(=O)[C@@H](NC(=O)CCCCN=C(N)N)CSSC[C@@H](C(N)=O)NC(=O)CCCCNC(=O)[C@H](Cc2ccc(O)cc2)NC(=O)[C@H](C(C)C)NC(=O)[C@H](CCCN=C(N)N)NC(=O)CNC(=O)[C@H](CC(C)C)NC1=O [Gva6,alphaAbu8,Ava14,15] ({Pentanoyl(5-guanidino)}-C[Abu]LGRVY[Ava]C-NH2; disulfide 1-9)
Ki [1]: 320 nM | Ki [2]: 43 nM

CSCC[C@@H]1NC(=O)[C@@H](NC(=O)[C@@H](CCCN=C(N)N)NC(C)=O)CSSC[C@@H](C(N)=O)NC(=O)CCCCNC(=O)[C@H](Cc2ccc(O)cc2)NC(=O)[C@H](C(C)C)NC(=O)[C@H](CCCN=C(N)N)NC(=O)CCCCNC1=O [D-Arg6,Ava9,10,Ava14,15]
Ki [1]: 69 nM | Ki [2]: 45 nM

CSCC[C@@H]1NC(=O)[C@@H](NC(=O)[C@@H](CCCN=C(N)N)NC(C)=O)CSSC[C@@H](C(N)=O)NC(=O)CCCCNC(=O)[C@H](Cc2ccc(O)cc2)NC(=O)[C@H](C(C)C)NC(=O)[C@H](CCCN=C(N)N)NC(=O)CNC(=O)[C@H](CC(C)C)NC1=O [D-Arg6,Ava14,15]
Ki [1]: 11.3 nM | Ki [2]: 65 nM

CSCC[C@@H]1NC(=O)[C@@H](NC(=O)CCCCN=C(N)N)CSSC[C@@H](C(N)=O)NC(=O)CCCCNC(=O)[C@H](Cc2ccc(O)cc2)NC(=O)[C@H](C(C)C)NC(=O)[C@H](CCCN=C(N)N)NC(=O)CCCCNC1=O [Gva6,Ava9,10,Ava14,15] ({Pentanoyl(5-guanidino)}-CM[Ava]RVY[Ava]C-NH2; disulfide 1-8)
Ki [1]: 45 nM | Ki [2]: 40 nM

CSCC[C@@H]1NC(=O)[C@H](NC(=O)CCCCN=C(N)N)CSSC[C@@H](C(N)=O)NC(=O)CCCCNC(=O)[C@H](Cc2ccc(O)cc2)NC(=O)[C@H](C(C)C)NC(=O)[C@H](CCCN=C(N)N)NC(=O)CNC(=O)[C@H](CC(C)C)NC1=O [Gva6,D-Cys7,Ava14,15]
Ki [1]: 120 nM | Ki [2]: 25 nM

CSCC[C@@H]1NC(=O)[C@@H](NC(=O)CCCCN=C(N)N)CSSC[C@@H](C(N)=O)NC(=O)CCCNC(=O)[C@H](Cc2ccc(O)cc2)NC(=O)[C@H](C(C)C)NC(=O)[C@H](CCCN=C(N)N)NC(=O)CNC(=O)[C@H](CC(C)C)NC1=O [Gva6,gammaAbu14,15]
Ki [1]: 24 nM | Ki [2]: 48 nM

CSCC[C@@H]1NC(=O)[C@@H](NC(=O)CCCCN=C(N)N)CSSC[C@@H](C(=O)O)NC(=O)CCCCNC(=O)[C@H](Cc2ccc(O)cc2)NC(=O)[C@H](C(C)C)NC(=O)[C@H](CCCN=C(N)N)NC(=O)CNC(=O)[C@H](CC(C)C)NC1=O [Gva6,Ava14,15, OH]
Ki [1]: 66 nM | Ki [2]: 38 nM

CSCC[C@@H]1NC(=O)[C@@H](NC(=O)CCCCN=C(N)N)CSSC[C@@H](C(N)=O)NC(=O)CCCCNC(=O)[C@H](Cc2ccc(O)cc2)NC(=O)[C@H](C)NC(=O)[C@H](CCCN=C(N)N)NC(=O)CNC(=O)[C@H](CC(C)C)NC1=O [Gva6,Ala12,Ava14,15] ({Pentanoyl(5-guanidino)}-CMLGRAY[Ava]C-NH2; disulfide 1-9)
Ki [1]: 25 nM | Ki [2]: 35 nM

CSCC[C@@H]1NC(=O)[C@@H](NC(=O)CCCCN=C(N)N)CSSC[C@@H](C(N)=O)NC(=O)[C@H]2CC[C@H](CC2)NC(=O)[C@H](Cc2ccc(O)cc2)NC(=O)[C@H](C(C)C)NC(=O)[C@H](CCCN=C(N)N)NC(=O)CNC(=O)[C@H](CC(C)C)NC1=O [Gva6,cisAcx14,15]
Ki [1]: 10 nM | Ki [2]: 3100 nM

CSCC[C@@H]1NC(=O)[C@@H](N)CSSC[C@@H](C(N)=O)NC(=O)CCCCNC(=O)[C@H](Cc2ccc(O)cc2)NC(=O)[C@H](C(C)C)NC(=O)[C@H](CCCN=C(N)N)NC(=O)CNC(=O)[C@H](CC(C)C)NC1=O [des(Ac-Arg6),Ava14,15]
Ki [1]: 300 nM and 190 nM | Ki [2]: 77 nM and 48 nM

CSCC[C@@H]1NC(=O)[C@@H](NC(=O)CCCCN=C(N)N)CSSC[C@@H](C(N)=O)NC(=O)[C@@H]2CCCN2C(=O)[C@H](CCCN=C(N)N)NC(=O)[C@H](Cc2ccc(O)cc2)NC(=O)[C@H](C(C)C)NC(=O)[C@H](CCCN=C(N)N)NC(=O)CCCCNC1=O [Gva6,Ava9,10]
Ki [1]: 5 nM | Ki [2]: 48 nM

CSCC[C@@H]1NC(=O)[C@@H](NC(=O)CCCCN=C(N)N)CSSC[C@@H](C(N)=O)NC(=O)CCCCNC(=O)[C@H](Cc2ccc(O)cc2)NC(=O)[C@H](C(C)C)NC(=O)[C@H](CCCN=C(N)N)NC(=O)CNC1=O [Gva6,desLeu9,Ava14,15] ({Pentanoyl(5-guanidino)}-CMGRVY[Ava]C-NH2; disulfide 1-8)
Ki [1]: 1350 nM | Ki [2]: 20 nM

CC(C)C[C@@H]1NC(=O)[C@H](C)NC(=O)[C@@H](NC(=O)CCCCN=C(N)N)CSSC[C@@H](C(N)=O)NC(=O)CCCCNC(=O)[C@H](Cc2ccc(O)cc2)NC(=O)[C@H](C(C)C)NC(=O)[C@H](CCCN=C(N)N)NC(=O)CNC1=O [Gva6,Ala8,Ava14,15] ({Pentanoyl(5-guanidino)}-CALGRVY[Ava]C-NH2; disulfide 1-9)
Ki [1]: 83 nM | Ki [2]: 33 nM

CSCC[C@@H]1NC(=O)[C@H](NC(=O)[C@H](CCCN=C(N)N)NC(C)=O)CSSC[C@@H](C(N)=O)NC(=O)CCCCNC(=O)[C@H](Cc2ccc(O)cc2)NC(=O)[C@H](C(C)C)NC(=O)[C@H](CCCN=C(N)N)NC(=O)CNC(=O)[C@H](CC(C)C)NC1=O [D-Cys7,Ava14,15]
Ki [1]: 340 nM | Ki [2]: 20 nM
